Assay results: patent US20200369630A1, “HERBICIDALLY ACTIVE 3-PHENYL-5-TRIFLUOROMETHYLISOXAZOLINE-5-CARBOXAMIDES OF CYCLOPENTYLCARBOXYLIC ACIDS AND ESTERS” (Bayer Aktiengesellschaft, priority 2017, published 2020)

Tests used:
Format in all cases: in vivo
[1] = test system: ABUTH: Abutilon theophrasti; assay: Pre-emergence herbicidal action; settings: Table C1, pre-emergence, 80 g/ha, scored visually after about 3 weeks
Description: (§1) Seeds of monocotyledonous and dicotyledonous weed plants and crop plants are placed in plastic or wood fiber pots and covered with soil. The compounds of the invention, formulated in the form of wettable powders (WP) or as emulsion concentrates (EC), are then applied onto the surface of the covering soil as aqueous suspension or emulsion with addition of 0.5% additive at a water application rate of […] (converted). After the treatment, the pots are placed in a greenhouse and kept under good growth conditions for the trial plants. After about 3 weeks, the effect of the preparations is scored visually in comparison with untreated controls as percentages. For example, 100% activity=the plants have died, 0% activity=like control plants. [table]

[2] = test system: ALOMY: Alopecurus myosuroides; assay: Pre-emergence herbicidal action
Description: as §1

[3] = test system: AMARE: Amaranthus retroflexus; assay: Pre-emergence herbicidal action
Description: as §1

AVEFA: Avena fatua [4] = assay: Pre-emergence herbicidal action
Description: as §1

[5] = test system: ECHCG: Echinochloa crus-galli; assay: Pre-emergence herbicidal action; settings: Table C1, pre-emergence, 80 g/ha, scored visually after about 3 weeks
Description: as §1

HORMU: Hordeum murinum [6] = assay: Pre-emergence herbicidal action; settings: Table C1, pre-emergence, 80 g/ha, scored visually after about 3 weeks
Description: as §1

LOLRI: Lolium rigidum [7] = assay: Pre-emergence herbicidal action; settings: Table C1, pre-emergence, 80 g/ha, scored visually after about 3 weeks
Description: as §1

[8] = test system: MATIN: Matricaria inodora; assay: Pre-emergence herbicidal action; settings: Table C1, pre-emergence, 80 g/ha, scored visually after about 3 weeks
Description: as §1

PHBPU: Ipomoea purpurea = assay: Pre-emergence herbicidal action; settings: Table C1, pre-emergence, 80 g/ha, scored visually after about 3 weeks
Description: as §1

[9] = test system: POLCO: Polygonum convolvulus; assay: Pre-emergence herbicidal action; settings: Table C1, pre-emergence, 80 g/ha, scored visually after about 3 weeks
Description: as §1

SETVI: Setaria viridis = assay: Pre-emergence herbicidal action
Description: as §1

STEME: Stellaria media [10] = assay: Pre-emergence herbicidal action
Description: as §1

VERPE: Veronica persica [11] = assay: Pre-emergence herbicidal action
Description: as §1

VIOTR: Viola tricolor = assay: Pre-emergence herbicidal action
Description: as §1

[12] = test system: ABUTH: Abutilon theophrasti; assay: Post-emergence herbicidal action; settings: Second Table C3, superiority with respect to WO 2012/130798, post-emergence, 80 g/ha
Method: (§2) [table] Seeds of monocotyledonous and dicotyledonous weeds and crop plants are placed in sandy loam in plastic or wood-fiber pots, covered with soil and cultivated in a greenhouse under controlled growth conditions. 2 to 3 weeks after sowing, the test plants are treated at the one-leaf stage. The compounds of the invention, formulated in the form of wettable powders (WP) or as emulsion concentrates (EC), are then sprayed onto the green parts of the plants as aqueous suspension or emulsion with addition of 0.5% additive at a water application rate of […] (converted). After the test plants had been kept in the greenhouse under optimum growth conditions for about 3 weeks, the activity of the preparations is rated visually in comparison to untreated controls. For example, 100% activity=the plants have died, 0% activity=like control plants.

[13] = test system: ALOMY: Alopecurus myosuroides; assay: Post-emergence herbicidal action; settings: rated visually after about 3 weeks
Method: as §2

[14] = test system: AMARE: Amaranthus retroflexus; assay: Post-emergence herbicidal action; settings: rated visually after about 3 weeks
Method: as §2

AVEFA: Avena fatua [15] = assay: Post-emergence herbicidal action; settings: Table C2, post-emergence, dosage 320 (0.32 kg of active substance per hectare), rated visually after about 3 weeks
Method: as §2

[16] = test system: ECHCG: Echinochloa crus-galli; assay: Post-emergence herbicidal action; settings: Table C2, post-emergence, dosage 320 (0.32 kg of active substance per hectare), rated visually after about 3 weeks
Method: as §2

HORMU: Hordeum murinum [17] = assay: Post-emergence herbicidal action; settings: rated visually after about 3 weeks
Method: as §2

LOLRI: Lolium rigidum [18] = assay: Post-emergence herbicidal action; settings: rated visually after about 3 weeks
Method: as §2

[19] = test system: POLCO: Polygonum convolvulus; assay: Post-emergence herbicidal action; settings: rated visually after about 3 weeks
Method: as §2

STEME: Stellaria media [20] = assay: Post-emergence herbicidal action
Method: as §2

VERPE: Veronica persica [21] = assay: Post-emergence herbicidal action; settings: Table C2, post-emergence, dosage 320 (0.32 kg of active substance per hectare), rated visually after about 3 weeks
Method: as §2

[22] = Second Table C4, superiority with respect to WO 2012/130798, pre-emergence, 20 g/ha
[23] = Table C1, pre-emergence, 80 g/ha, scored visually after about 3 weeks
[24] = Table C2, post-emergence, dosage 320 (0.32 kg of active substance per hectare)
[25] = Second Table C3, superiority with respect to WO 2012/130798, post-emergence, 80 g/ha
[26] = Table C2, post-emergence, dosage 320 (0.32 kg of active substance per hectare), rated visually after about 3 weeks
[27] = Table C4, post-emergence, 320 g/ha

For `CCOC(=O)C1CCC(NC(=O)C2(C(F)(F)F)CC(c3cc(F)cc(F)c3)=NO2)C1` (mixture of isomers) [Example I-29], the “Herbicidal action against [%] ABUTH” value [1] was 70%, the “Herbicidal action against [%] ALOMY” value [2, 22] was 90% and the “Herbicidal action against [%] ALOMY” value [2, 23] was 100%. For the same compound, the “Herbicidal action against [%] AMARE” value [3, 22] was 100%, the “Herbicidal action against [%] AMARE” value [3, 23] was 100% and the “Herbicidal action against [%] AVEFA” value (AVEFA: Avena fatua [4]; [22]) was 70%. For the same compound, the “Herbicidal action against [%] AVEFA” value (AVEFA: Avena fatua [4]; [23]) was 80%, the “Herbicidal action against [%] ECHCG” value [5] was 90% and the “Herbicidal action against [%] HORMU” value (HORMU: Hordeum murinum [6]) was 90%. The “Herbicidal action against [%] LOLRI” value (LOLRI: Lolium rigidum [7]) was 100%, the “Herbicidal action against [%] MATIN” value [8] was 30% and the “Herbicidal action against [%] PHBPU” value (PHBPU: Ipomoea purpurea) was 80%. For the same compound, the “Herbicidal action against [%] POLCO” value [9] was 80%, the “Herbicidal action against [%] SETVI” value (SETVI: Setaria viridis; [22]) was 90% and the “Herbicidal action against [%] SETVI” value (SETVI: Setaria viridis; [23]) was 100%. For the same compound, the “Herbicidal action against [%] STEME” value (STEME: Stellaria media [10]; [22]) was 90%, the “Herbicidal action against [%] STEME” value (STEME: Stellaria media [10]; [23]) was 90% and the “Herbicidal action against [%] VERPE” value (VERPE: Veronica persica [11]; [22]) was 90%. The “Herbicidal action against [%] VERPE” value (VERPE: Veronica persica [11]; [23]) was 100%, the “Herbicidal action against [%] VIOTR” value (VIOTR: Viola tricolor; [22]) was 90% and the “Herbicidal action against [%] VIOTR” value (VIOTR: Viola tricolor; [23]) was 90%. The “Herbicidal action against [%] ABUTH” value [12] was 80%, the “Herbicidal action against [%] ALOMY” value [13, 24] was 90% and the “Herbicidal action against [%] AMARE” value [14, 24] was 80%. For the same compound, the “Herbicidal action against [%] AVEFA” value (AVEFA: Avena fatua [15]) was 90%, the “Herbicidal action against [%] ECHCG” value [16] was 80% and the “Herbicidal action against [%] HORMU” value (HORMU: Hordeum murinum [17]; [24]) was 90%. The “Herbicidal action against [%] LOLRI” value (LOLRI: Lolium rigidum [18]; [24]) was 90%, the “Herbicidal action against [%] POLCO” value [19, 24] was 90% and the “Herbicidal action against [%] STEME” value (STEME: Stellaria media [20]; [25]) was 80%. The “Herbicidal action against [%] STEME” value (STEME: Stellaria media [20]; [26]) was 80% and the “Herbicidal action against [%] VERPE” value (VERPE: Veronica persica [21]) was 80%.

With `O=C(OCCCl)C1CCC(NC(=O)C2(C(F)(F)F)CC(c3cc(F)cc(F)c3)=NO2)C1` (mixture of isomers) [Example I-99] the “Herbicidal action against [%] ABUTH” value [1] was 80%, the “Herbicidal action against [%] ALOMY” value [2, 23] was 100% and the “Herbicidal action against [%] AMARE” value [3, 23] was 100%. The “Herbicidal action against [%] AVEFA” value (AVEFA: Avena fatua [4]; [23]) was 90%, the “Herbicidal action against [%] ECHCG” value [5] was 90% and the “Herbicidal action against [%] HORMU” value (HORMU: Hordeum murinum [6]) was 100%. The “Herbicidal action against [%] LOLRI” value (LOLRI: Lolium rigidum [7]) was 100%, the “Herbicidal action against [%] MATIN” value [8] was 80% and the “Herbicidal action against [%] PHBPU” value (PHBPU: Ipomoea purpurea) was 90%. The “Herbicidal action against [%] SETVI” value (SETVI: Setaria viridis; [23]) was 100%, the “Herbicidal action against [%] STEME” value (STEME: Stellaria media [10]; [23]) was 100% and the “Herbicidal action against [%] VERPE” value (VERPE: Veronica persica [11]; [23]) was 100%. The “Herbicidal action against [%] VIOTR” value (VIOTR: Viola tricolor; [23]) was 100%, the “Herbicidal action against [%] ALOMY” value [13, 24] was 90% and the “Herbicidal action against [%] AMARE” value [14, 24] was 90%. The “Herbicidal action against [%] AVEFA” value (AVEFA: Avena fatua [15]) was 90%, the “Herbicidal action against [%] ECHCG” value [16] was 90% and the “Herbicidal action against [%] HORMU” value (HORMU: Hordeum murinum [17]; [24]) was 90%. For the same compound, the “Herbicidal action against [%] LOLRI” value (LOLRI: Lolium rigidum [18]; [24]) was 100%, the “Herbicidal action against [%] POLCO” value [19, 24] was 80% and the “Herbicidal action against [%] STEME” value (STEME: Stellaria media [20]; [26]) was 90%. For the same compound, the “Herbicidal action against [%] VERPE” value (VERPE: Veronica persica [21]) was 90%.

For `CCOC(=O)C1CCC(NC(=O)C2(C)CC(c3cc(F)cc(F)c3)=NO2)C1` (centres unmarked) [Example 6.736, reference compound], the “Herbicidal action against [%] ALOMY” value [2, 22] was 70%, the “Herbicidal action against [%] AMARE” value [3, 22] was 0% and the “Herbicidal action against [%] AVEFA” value (AVEFA: Avena fatua [4]; [22]) was 50%. For the same compound, the “Herbicidal action against [%] SETVI” value (SETVI: Setaria viridis; [22]) was 20%, the “Herbicidal action against [%] STEME” value (STEME: Stellaria media [10]; [22]) was 50% and the “Herbicidal action against [%] VERPE” value (VERPE: Veronica persica [11]; [22]) was 70%. For the same compound, the “Herbicidal action against [%] VIOTR” value (VIOTR: Viola tricolor; [22]) was 0%, the “Herbicidal action against [%] ABUTH” value [12] was 60% and the “Herbicidal action against [%] STEME” value (STEME: Stellaria media [20]; [25]) was 50%.

With `CCOC(=O)[C@@H]1CC[C@H](NC(=O)[C@@]2(C(F)(F)F)CC(c3cc(F)cc(F)c3)=NO2)C1` [Example I-39, ethyl (1R,3S)-3-({[(5R)-3-(3,5-difluorophenyl)-5-(trifluoromethyl)-4,5-dihydro-1,2-oxazol-5-yl]carbonyl}amino)cyclopentanecarboxylate] the “Herbicidal action against [%] ABUTH” value [1] was 70%, the “Herbicidal action against [%] ALOMY” value [2, 23] was 100% and the “Herbicidal action against [%] AMARE” value [3, 23] was 100%. For the same compound, the “Herbicidal action against [%] AVEFA” value (AVEFA: Avena fatua [4]; [23]) was 100%, the “Herbicidal action against [%] ECHCG” value [5] was 100% and the “Herbicidal action against [%] HORMU” value (HORMU: Hordeum murinum [6]) was 90%. For the same compound, the “Herbicidal action against [%] LOLRI” value (LOLRI: Lolium rigidum [7]) was 100%, the “Herbicidal action against [%] MATIN” value [8] was 90% and the “Herbicidal action against [%] PHBPU” value (PHBPU: Ipomoea purpurea) was 80%. For the same compound, the “Herbicidal action against [%] POLCO” value [9] was 100%, the “Herbicidal action against [%] SETVI” value (SETVI: Setaria viridis; [23]) was 100% and the “Herbicidal action against [%] VIOTR” value (VIOTR: Viola tricolor; [23]) was 100%. The “Herbicidal action against [%] ALOMY” value [13, 27] was 100%, the “Herbicidal action against [%] AMARE” value [14, 27] was 80% and the “Herbicidal action against [%] HORMU” value (HORMU: Hordeum murinum [17]; [27]) was 100%. For the same compound, the “Herbicidal action against [%] LOLRI” value (LOLRI: Lolium rigidum [18]; [27]) was 90% and the “Herbicidal action against [%] POLCO” value [19, 27] was 80%.
